The source of these data is PubChem BioAssay (NCI).

Some test systems named below: NCI-H522 lung; HOP-92 NSCLC; BT-549 breast; MDA-MB-435; M14 melanoma; PC-3 prostate; TK-10 renal; A498 renal; DU-145 prostate; MDA-N.
Holding throughout (assay): inhibition of tumour cell growth, NCI panel, 48 h

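Cells were grown in 96-well plates and exposed to each compound for 48 hours at five concentrations; endpoints were interpolated linearly between bracketing concentrations, or set to the highest concentration if not reached. At the TGI there is no net growth.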 Where only a bound is given, the exact number is not on record here.

`C=C1c2nc3ccccc3n2C=C(c2ccc(C)cc2)N1c1ccc(C)cc1`: the TGI in the assay on NCI-H522 lung is 56.7 µM; in the assay on HOP-92 NSCLC it was more than 100 µM; in the assay on BT-549 breast, more than 100 µM; with MDA-MB-435, more than 78.2 µM; with M14 melanoma, more than 100 µM; with PC-3 prostate, more than 100 µM. For the same compound, the TGI in the assay on TK-10 renal is more than 100 µM; in the assay on A498 renal it was more than 100 µM; in the assay on DU-145 prostate, more than 100 µM; in the assay on MDA-N it was more than 92.3 µM.
Consider `CSC1C(=O)Nc2ccc3ccccc3c21` (stereo not given), for which the TGI in the assay with NCI-H522 lung is 7.29 µM; in the assay with HOP-92 NSCLC it was 40.6 µM; in the assay with BT-549 breast, 50.7 µM; in the assay on MDA-MB-435, more than 100 µM; in the assay on M14 melanoma, 68.3 µM; with PC-3 prostate, 35 µM. Further, the results for the TGI in the assay on TK-10 renal, in the assay on DU-145 prostate and with MDA-N were 33.2 µM, more than 100 µM and more than 100 µM, respectively.
`CCCC(O)c1cn(C(NC(=O)c2ccccc2)P(=O)(OCC)OCC)nn1` (stereo not given): the TGI in the assay on NCI-H522 lung, in the assay on HOP-92 NSCLC, in the assay with BT-549 breast, with MDA-MB-435, with M14 melanoma and in the assay with PC-3 prostate was more than 100 µM throughout. In addition, the TGI with TK-10 renal, in the assay with A498 renal, with DU-145 prostate and in the assay with MDA-N was more than 100 µM in each case.
Turning to `Oc1ccc(Cl)cc1-c1cc(-c2ccccc2)nc(NCN2CCCCC2)n1`, the TGI in the assay with NCI-H522 lung, in the assay with HOP-92 NSCLC, with BT-549 breast, with MDA-MB-435, with M14 melanoma and in the assay on PC-3 prostate was more than 100 µM in each case. The TGI in the assay on TK-10 renal, with A498 renal, in the assay on DU-145 prostate and in the assay on MDA-N was more than 100 µM each time.
As to `C=CC(OC(C)=O)c1ccc(OC(=O)C(C)C)c(OC)c1` (stereo not given), the TGI was 3.01 µM with NCI-H522 lung; 11.5 µM in the assay with HOP-92 NSCLC; 16.4 µM with BT-549 breast; 15.6 µM in the assay with MDA-MB-435; 17.3 µM in the assay with M14 melanoma; 19.3 µM in the assay with PC-3 prostate. Also, the TGI in the assay on TK-10 renal is 11.5 µM; in the assay on A498 renal, 31 µM; in the assay with DU-145 prostate it was 24.5 µM; in the assay on MDA-N it was 16.8 µM.
As to `O=C(O)C[C@@H]1[C@@H](O)[C@@H](O)CN2C(=O)c3ccccc3[C@H]12`, the TGI in the assay with NCI-H522 lung, in the assay on BT-549 breast, in the assay with MDA-MB-435, in the assay with M14 melanoma, with PC-3 prostate and with TK-10 renal was more than 100 µM in each case. In addition, the TGI with A498 renal, with DU-145 prostate and with MDA-N was more than 100 µM each time.
Regarding `O=c1oc2ccc([N+](=O)[O-])cc2c(Nc2ccc3c(c2)Sc2ccccc2O3)c1[N+](=O)[O-]`, the TGI is 33.8 µM with NCI-H522 lung; 41.6 µM in the assay on HOP-92 NSCLC; 64.3 µM in the assay on BT-549 breast; 85 µM with MDA-MB-435; 41.6 µM in the assay on M14 melanoma; 40.8 µM with PC-3 prostate. In addition, the TGI with TK-10 renal turned out to be 58.3 µM; in the assay on DU-145 prostate, 99.5 µM; with MDA-N, 88.8 µM.
With `COC(=O)/C=C\C(C#N)(C#N)N=Cc1ccccc1`, the TGI in the assay on NCI-H522 lung turned out to be 1.67 µM; with HOP-92 NSCLC it was 3.74 µM; in the assay with BT-549 breast it was 10.8 µM; in the assay on MDA-MB-435, 5.22 µM; with M14 melanoma, 5.41 µM; with PC-3 prostate, 13.1 µM. Also, the TGI in the assay with TK-10 renal was 5.54 µM; in the assay with A498 renal, 33.1 µM; in the assay with DU-145 prostate, 31.4 µM; with MDA-N it was 15.1 µM.
On to `CC(=O)c1ccccc1NCC(=O)Nn1cnc2ccc(S(=O)(=O)Nc3ccccc3C(C)=O)cc2c1=O`, for which the TGI in the assay with NCI-H522 lung, with HOP-92 NSCLC, with BT-549 breast, with MDA-MB-435, in the assay with M14 melanoma and in the assay on PC-3 prostate was more than 100 µM throughout. Moreover, the TGI with TK-10 renal, with DU-145 prostate and with MDA-N was more than 100 µM throughout.
`CSc1c(C#N)c(N)nc2c(N=Nc3ccc(Br)cc3)c(N)nn12`: the TGI in the assay with NCI-H522 lung was 12 µM; in the assay with HOP-92 NSCLC, 18.9 µM; in the assay on BT-549 breast it was 37.3 µM; in the assay with MDA-MB-435, 25 µM; in the assay on M14 melanoma, 24.6 µM; in the assay with PC-3 prostate, 23.5 µM. Further, the TGI stood at 29.7 µM with TK-10 renal, 52.9 µM in the assay with A498 renal, 14.9 µM in the assay with DU-145 prostate and 18.8 µM with MDA-N.
For the compound `CCO[C@@]1(COCc2ccccc2)OC(=O)C[C@@H]1N1C(=O)OC[C@@H]1c1ccccc1`, the TGI with NCI-H522 lung, in the assay on HOP-92 NSCLC, in the assay with BT-549 breast, with MDA-MB-435, in the assay on M14 melanoma and in the assay on PC-3 prostate was more than 100 µM throughout. The TGI in the assay with TK-10 renal, in the assay on A498 renal, in the assay on DU-145 prostate and in the assay with MDA-N was more than 100 µM each time.
`Cc1ccc(C(=O)N(Cc2ccccc2)Cc2ccccc2)cc1N=NN(C)C`: the TGI in the assay with NCI-H522 lung was 38.7 µM; in the assay with HOP-92 NSCLC, 70.1 µM; with BT-549 breast, 45.6 µM; with MDA-MB-435, 54.8 µM; in the assay with M14 melanoma, more than 81.2 µM; with PC-3 prostate, more than 100 µM. Besides, the TGI with TK-10 renal, in the assay on DU-145 prostate and in the assay on MDA-N was more than 100 µM in each case.
Turning to `COC12CCCN1c1ccn(Cc3ccccc3)c(=O)c1C2=O` (stereo not given), the TGI with NCI-H522 lung, with HOP-92 NSCLC, with BT-549 breast, in the assay with MDA-MB-435, with M14 melanoma and in the assay on PC-3 prostate was more than 100 µM in each case. The TGI with TK-10 renal, with A498 renal, in the assay with DU-145 prostate and in the assay with MDA-N was more than 100 µM in each case.
